# Laboratory results as given in patent US20250326772A1, “MRGPRX2 ANTAGONISTS, PHARMACEUTICAL COMPOSITION INCLUDING MRGPRX2 ANTAGONIST, AND METHOD OF TREATING MRGPRX2-MEDIATED DISEASE OR DISORDER” (KYORIN PHARMACEUTICAL CO., LTD., priority 2024, published 2025).
# Target: T1, MRGPRX2 (Homo sapiens, UniProt Q96LB1)
# T1 sequence (Q96LB1 1-330): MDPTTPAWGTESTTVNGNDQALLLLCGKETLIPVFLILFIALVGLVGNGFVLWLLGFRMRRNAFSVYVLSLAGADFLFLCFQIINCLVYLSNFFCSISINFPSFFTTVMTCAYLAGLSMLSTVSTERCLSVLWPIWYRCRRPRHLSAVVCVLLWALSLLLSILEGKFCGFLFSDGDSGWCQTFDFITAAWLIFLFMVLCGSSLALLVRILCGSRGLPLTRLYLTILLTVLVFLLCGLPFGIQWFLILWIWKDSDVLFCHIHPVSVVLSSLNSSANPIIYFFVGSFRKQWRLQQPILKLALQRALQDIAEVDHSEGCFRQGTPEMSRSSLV
# Experiment: MRGPRX2 reporter cell assay (NFAT-RE luciferase, Substance P stimulation)
# Assay type: cell-based
# Details: U2OS cells stably transfected with MRGPRX2 and NFAT-RE luciferase reporter; Substance P at EC80
# Summary of the method: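 U2OS cells stably expressing MRGPRX2 and an NFAT-RE luc2P reporter, pre-incubated 30 min at 37° C with compound (0.5% DMSO), then stimulated with Substance P at EC80 for 6 h. Luminescence after ONE-GLO; percent inhibition fitted by four-parameter logistic to IC50.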
row,SMILES,IC50
1,COC(=O)N[C@]1(C)COc2c(-c3[nH]c4ncccc4c3-c3cccnc3OC(F)F)c(C(F)F)nn2C1 [EX. 492],1.9 nM
2,COC(=O)N[C@@H]1COc2c(-c3[nH]c4ncccc4c3-c3cn(C)nc3C#N)c(C(F)F)nn2C1 [EX. 517],3.2 nM
3,"Cn1cc(-c2c(-c3c(C(F)F)nn4c3OC[C@@H](O)C4)[nH]c3ncccc23)c(OC(F)F)n1 [EX. 527, (S)-3-(3-(3-(difluoromethoxy)-1-methyl-1H-pyrazol-4-yl)-1H-pyrrolo[2,3-b]pyridin-2-yl)-2-(difluoromethyl)-6,7-dihydro-5H-pyrazolo[5,1-b] [1,3]oxazin-6-ol]",4.4 nM
4,CO[C@@H]1COc2c(-c3[nH]c4ncccc4c3-c3cn(C)nc3OC(F)F)c(C(F)F)nn2C1 [EX. 531],2.3 nM
5,Cn1cc(-c2c(-c3c(C(F)F)nn4c3OC[C@@H](OCCO)C4)[nH]c3ncccc23)c(OC(F)F)n1 [EX. 534],2.1 nM
6,Cn1cc(-c2c(-c3c(C(F)F)nn4c3OC[C@@H](OCC(C)(C)O)C4)[nH]c3ncccc23)c(OC(F)F)n1 [EX. 535],2 nM

# Same assay, conditions: U2OS cells stably transfected with MRGPRX2 and NFAT-RE luciferase reporter; Substance P at EC80; class symbols
row,SMILES,IC50
1,Cc1cc(-c2c(-c3c(C(F)F)nn4c3OC[C@@H](O)C4)[nH]c3ncccc23)c(Cl)s1 [EX. 479],< 10 nM
2,"Cc1nn2c(c1-c1[nH]c3ncccc3c1-c1cn(C)nc1OC(F)F)OC[C@@H](O)C2 [EX. 480, (S)-3-(3-(3-(difluoromethoxy)-1-methyl-1H-pyrazol-4-yl)-1 H-pyrrolo[2,3-b]pyridin-2-yl)-2-methyl-6,7-dihydro-5H-pyrazolo[5,1-b] [1,3]oxazin-6-ol]",< 10 nM
3,Cn1cc(-c2c(-c3c(C(F)F)nn4c3OC[C@@](C)(O)C4)[nH]c3ncccc23)c(OC(F)F)n1 [EX. 481],< 10 nM
4,Cn1cc(-c2c(-c3c(C(F)F)nn4c3OC[C@@](C)(OCC(N)=O)C4)[nH]c3ncccc23)c(OC(F)F)n1 [EX. 482],< 10 nM
5,COC(=O)N[C@@H]1COc2c(-c3[nH]c4ncccc4c3-c3cn(C)nc3OC(F)F)c(C3CC3)nn2C1 [EX. 483],< 10 nM
6,Cn1cc(-c2c(-c3c(C4CC4)nn4c3OC[C@@H](NS(C)(=O)=O)C4)[nH]c3ncccc23)c(OC(F)F)n1 [EX. 484],< 10 nM
7,Cn1cc(-c2c(-c3c(C4CC4)nn4c3OC[C@@H](O)C4)[nH]c3ncccc23)c(OC(F)F)n1 [EX. 485],< 10 nM
8,"CO[C@]1(C)COc2c(-c3[nH]c4ncccc4c3-c3cc(C)sc3C#N)c(C(F)F)nn2C1 [EX. 486, (S)-3-(2-(2-(difluoromethyl)-6-methoxy-6-methyl-6,7-dihydro-5H-pyrazolo[5,1-b] [1,3]oxazin-3-yl)-1H-pyrrolo[2,3-b]pyridin-3-yl)-5-methylthiophene-2-carbonitrile]",< 10 nM
9,FC(F)Oc1cnccc1-c1c(-c2c(C(F)F)nn3c2OCCC3)[nH]c2ncccc12 [EX. 489],< 10 nM
10,C[C@@]1(N)COc2c(-c3[nH]c4ncccc4c3-c3cccnc3OC(F)F)c(C(F)F)nn2C1 [EX. 490],< 10 nM
11,"Cn1cc(-c2c(-c3c(C(F)F)nn4c3OC[C@@H](O)C4)[nH]c3ncccc23)c(C#N)n1 [EX. 491, (S)-4-(2-(2-(difluoromethyl)-6-hydroxy-6,7-dihydro-5H-pyrazolo[5,1-b] [1,3]oxazin-3-yl)-1H-pyrrolo[2,3-b]pyridin-3-yl)-1-methyl-1H-pyrazole-3-carbonitrile]",< 10 nM
12,COC(=O)N[C@]1(C)COc2c(-c3[nH]c4ncccc4c3-c3cccnc3OC(F)F)c(C(F)F)nn2C1 [EX. 492],< 10 nM
13,Cn1cc(-c2c(-c3c(C(F)F)nn4c3OC[C@@](C)(OCCO)C4)[nH]c3ncccc23)c(OC(F)F)n1 [EX. 493],< 10 nM
14,COC(=O)N[C@@H]1COc2c(-c3[nH]c4ncccc4c3-c3cc(C)sc3C#N)c(C)nn2C1 [EX. 494],< 10 nM
15,OCCO[C@@H]1COc2c(-c3[nH]c4ncccc4c3-c3cccnc3OC(F)F)c(C(F)F)nn2C1 [EX. 495],< 10 nM
16,Cc1nn2c(c1-c1[nH]c3ncccc3c1-c1cccnc1OC(F)F)OC[C@@H](O)C2 [EX. 496],< 10 nM
17,CO[C@@H]1COc2c(-c3[nH]c4ncccc4c3-c3cccnc3OC(F)F)c(C)nn2C1 [EX. 497],< 10 nM
18,Cc1nn2c(c1-c1[nH]c3ncccc3c1-c1cccnc1OC(F)F)OC[C@@H](OCCO)C2 [EX. 498],< 10 nM
19,CO[C@@H]1COc2c(-c3[nH]c4ncccc4c3-c3cccnc3OC(F)F)c(C(F)F)nn2C1 [EX. 499],< 10 nM
20,Cn1cc(-c2c(-c3c(C(F)F)nn4c3OC[C@@H](OCCO)C4)[nH]c3ncccc23)c(C#N)n1 [EX. 500],< 10 nM
21,Cn1cc(-c2c(-c3c(C(F)F)nn4c3OC[C@@H](OCC(C)(C)O)C4)[nH]c3ncccc23)c(C#N)n1 [EX. 501],< 10 nM
22,CCO[C@@H]1COc2c(-c3[nH]c4ncccc4c3-c3cn(C)nc3C#N)c(C(F)F)nn2C1 [EX. 502],< 10 nM
23,CNC(=O)O[C@@H]1COc2c(-c3[nH]c4ncccc4c3-c3cn(C)nc3C#N)c(C(F)F)nn2C1 [EX. 503],< 10 nM
24,Cc1cc(-c2c(-c3c(C)nn4c3OC[C@@H](OCCO)C4)[nH]c3ncccc23)c(C#N)s1 [EX. 504],< 10 nM
25,Cc1cc(-c2c(-c3c(C)nn4c3OC[C@@H](NC(=O)C3CC3)C4)[nH]c3ncccc23)c(C#N)s1 [EX. 505],< 10 nM
26,CO[C@@H]1COc2c(-c3[nH]c4ncccc4c3-c3cc(C)sc3C#N)c(C(F)F)nn2C1 [EX. 506],< 10 nM
27,Cc1cc(-c2c(-c3c(C(F)F)nn4c3OC[C@@H](OCCO)C4)[nH]c3ncccc23)c(C#N)s1 [EX. 507],< 10 nM

row,SMILES,IC50
1,N#Cc1ncccc1-c1c(-c2c(C(F)F)nn3c2OC[C@@H](OCCO)C3)[nH]c2ncccc12 [EX. 508],< 10 nM
2,CC(C)(O)CO[C@@H]1COc2c(-c3[nH]c4ncccc4c3-c3cccnc3C#N)c(C(F)F)nn2C1 [EX. 509],< 10 nM
3,"COC(=O)N[C@@H]1COc2c(-c3[nH]c4ncccc4c3-c3cccnc3OC(F)F)c(C(F)F)nn2C1 [EX. 512, methyl(S)-(3-(3-(2-(difluoromethoxy)pyridin-3-yl)-1H-10 pyrrolo[2,3-b]pyridin-2-yl)-2-(difluoromethyl)-6,7-dihydro-5H-pyrazolo[5,1-b] [1,3]oxazin-6-yl) carbamate]",< 10 nM
4,COC(=O)N[C@@H]1COc2c(-c3[nH]c4ncccc4c3-c3cccnc3OC(F)F)c(C)nn2C1 [EX. 513],< 10 nM
5,COC(=O)N[C@@H]1COc2c(-c3[nH]c4ncccc4c3-c3cccnc3C#N)c(C(F)F)nn2C1 [EX. 514],< 10 nM
6,COC(=O)N[C@@H]1COc2c(-c3[nH]c4ncccc4c3-c3ccncc3C#N)c(C(F)F)nn2C1 [EX. 515],< 10 nM
7,COC(=O)N[C@@H]1COc2c(-c3[nH]c4ncccc4c3-c3cc(C)sc3C#N)c(C(F)F)nn2C1 [EX. 516],< 10 nM
8,COC(=O)N[C@@H]1COc2c(-c3[nH]c4ncccc4c3-c3cn(C)nc3C#N)c(C(F)F)nn2C1 [EX. 517],< 10 nM
9,COC(=O)N[C@@H]1COc2c(-c3[nH]c4ncccc4c3-c3csnc3OC(F)F)c(C(F)F)nn2C1 [EX. 518],< 10 nM
10,COC(=O)N[C@@H]1COc2c(-c3[nH]c4ncsc4c3-c3cn(C)nc3OC(F)F)c(C(F)F)nn2C1 [EX. 519],< 10 nM
11,"Cn1cc(-c2c(-c3c(C(F)F)nn4c3OC[C@@H](NS(C)(=O)=O)C4)[nH]c3ncsc23)c(OC(F)F)n1 [EX. 520, (S)—N-(3-(6-(3-(difluoromethoxy)-1-methyl-1H-pyrazol-4-yl)-4H-pyrrolo[2,3-d]thiazol-5-yl)-2-(difluoromethyl)-6,7-dihydro-5H-pyrazolo[5,1-b] [1,3]oxazin-6-yl) methanesulfonamide]",< 10 nM
12,CS(=O)(=O)N[C@@H]1COc2c(-c3[nH]c4ncccc4c3-c3cccnc3OC(F)F)c(C(F)F)nn2C1 [EX. 521],< 10 nM
13,CS(=O)(=O)N[C@@H]1COc2c(-c3[nH]c4ncccc4c3-c3cccnc3C#N)c(C(F)F)nn2C1 [EX. 522],< 10 nM
14,CS(=O)(=O)N[C@@H]1COc2c(-c3[nH]c4ncccc4c3-c3ccncc3C#N)c(C(F)F)nn2C1 [EX. 523],< 10 nM
15,CS(=O)(=O)N[C@@H]1COc2c(-c3[nH]c4ncccc4c3-c3csnc3OC(F)F)c(C(F)F)nn2C1 [EX. 524],< 10 nM
16,Cc1cc(-c2c(-c3c(C(F)F)nn4c3OC[C@@H](NS(C)(=O)=O)C4)[nH]c3ncccc23)c(C#N)s1 [EX. 525],< 10 nM
17,"Cn1cc(-c2c(-c3c(C(F)F)nn4c3OC[C@@H](NS(C)(=O)=O)C4)[nH]c3ncccc23)c(OC(F)F)n1 [EX. 526, (S)—N-(3-(3-(3-(difluoromethoxy)-1-methyl-1H-pyrazol-4-yl)-1H-pyrrolo[2,3-b]pyridin-2-yl)-2-(difluoromethyl)-6,7-dihydro-5H-pyrazolo[5,1-b] [1,3]oxazin-6-yl) methanesulfonamide]",< 10 nM
18,"Cn1cc(-c2c(-c3c(C(F)F)nn4c3OC[C@@H](O)C4)[nH]c3ncccc23)c(OC(F)F)n1 [EX. 527, (S)-3-(3-(3-(difluoromethoxy)-1-methyl-1H-pyrazol-4-yl)-1H-pyrrolo[2,3-b]pyridin-2-yl)-2-(difluoromethyl)-6,7-dihydro-5H-pyrazolo[5,1-b] [1,3]oxazin-6-ol]",< 10 nM
19,Cn1cc(-c2c(-c3c(C(F)(F)F)nn4c3OCCC4)[nH]c3ncccc23)c(OC(F)F)n1 [EX. 528],< 10 nM
20,Cn1cc(-c2c(-c3c(C(F)F)nn4c3OC[C@@H](OC(F)F)C4)[nH]c3ncccc23)c(OC(F)F)n1 [EX. 529],< 10 nM
21,COC(=O)CO[C@@H]1COc2c(-c3[nH]c4ncccc4c3-c3cn(C)nc3OC(F)F)c(C(F)F)nn2C1 [EX. 530],< 10 nM
22,CO[C@@H]1COc2c(-c3[nH]c4ncccc4c3-c3cn(C)nc3OC(F)F)c(C(F)F)nn2C1 [EX. 531],< 10 nM
23,CCO[C@@H]1COc2c(-c3[nH]c4ncccc4c3-c3cn(C)nc3OC(F)F)c(C(F)F)nn2C1 [EX. 532],< 10 nM
24,COCCO[C@@H]1COc2c(-c3[nH]c4ncccc4c3-c3cn(C)nc3OC(F)F)c(C(F)F)nn2C1 [EX. 533],< 10 nM
25,Cn1cc(-c2c(-c3c(C(F)F)nn4c3OC[C@@H](OCCO)C4)[nH]c3ncccc23)c(OC(F)F)n1 [EX. 534],< 10 nM
26,Cn1cc(-c2c(-c3c(C(F)F)nn4c3OC[C@@H](OCC(C)(C)O)C4)[nH]c3ncccc23)c(OC(F)F)n1 [EX. 535],< 10 nM
27,Cn1cc(-c2c(-c3c(C(F)F)nn4c3OC[C@@H](OCCNS(C)(=O)=O)C4)[nH]c3ncccc23)c(OC(F)F)n1 [EX. 536],< 10 nM
